Results taken from ChEMBL document CHEMBL5233217, “Modification of 7-piperazinylquinolone antibacterials to promising anticancer lead compounds: Synthesis and in vitro studies” (Eur J Med Chem, 2020).
Values belong to the compound of their own block, whether it stands above or below them.

Experiments:
[1] = system: SMMC-7721; experiment: Antiproliferative activity against human SMMC-7721 cells assessed as reduction in cell viability incubated for 24 hrs by MTT assay; format: functional, cell-based; conditions: SMMC-7721, 24 h
[2] = system: MCF7; experiment: Antiproliferative activity against human MCF7 cells assessed as reduction in cell viability incubated for 24 hrs by MTT assay; format: functional, cell-based; conditions: MCF7, 24 h
[3] = system: HCT-8; experiment: Antiproliferative activity against human HCT-8 cells assessed as reduction in cell viability incubated for 24 hrs by MTT assay; format: functional, cell-based; conditions: HCT-8, 24 h
[4] = Cytotoxicity against Chinese hamster CHO cells assessed as reduction in cell viability by MTT assay; format: toxicity, cell-based, Cricetulus griseus
[5] = system: HL-60; experiment: Cytotoxicity against human HL-60 cells assessed as reduction in cell viability by MTT assay; format: functional, cell-based
[6] = system: Hep 3B2; experiment: Antiproliferative activity against human Hep3B cells assessed as reduction in cell viability; format: functional, cell-based
[7] = Cytotoxicity against Chinese hamster CHO cells assessed as reduction in cell viability incubated for 48 hrs by MTT assay; format: toxicity, cell-based, Cricetulus griseus
[8] = system: HL-60; experiment: Cytotoxicity against human HL-60 cells assessed as reduction in cell viability incubated for 48 hrs by MTT assay; format: functional, cell-based; conditions: HL-60, 48 h
[9] = system: L1210; experiment: Cytotoxicity against mouse L1210 cells assessed as reduction in cell viability incubated for 48 hrs by MTT assay; format: functional, cell-based; conditions: L1210, 48 h
[10] = system: SK-MEL3; experiment: Anticancer activity against human SK-MEL3 cells assessed as reduction in cell viability incubated for 72 hrs by MTT assay; format: functional, cell-based; conditions: SK-MEL3, 72 h
[11] = system: MCF7; experiment: Anticancer activity against human MCF7 cells assessed as reduction in cell viability incubated for 72 hrs by MTT assay; format: functional, cell-based; conditions: MCF7, 72 h
[12] = system: A-431; experiment: Anticancer activity against human A-431 cells assessed as reduction in cell viability incubated for 72 hrs by MTT assay; format: functional, cell-based; conditions: A-431, 72 h
[13] = system: EJ; experiment: Anticancer activity against human EJ cells assessed as reduction in cell viability incubated for 72 hrs by MTT assay; format: functional, cell-based
[14] = system: KB; experiment: Anticancer activity against human KB cells assessed as reduction in cell viability incubated for 72 hrs by MTT assay; format: functional, cell-based
[15] = system: SW480; experiment: Anticancer activity against human SW480 cells assessed as reduction in cell viability incubated for 72 hrs by MTT assay; format: functional, cell-based; conditions: SW480, 72 h
[16] = system: CT26; experiment: Antitumor activity against mouse CT26 cells assessed as reduction in cell viability incubated for 4 hrs by MTT assay; format: functional, cell-based; conditions: CT26, 4 h
[17] = system: A549; experiment: Antitumor activity against human A549 cells assessed as reduction in cell viability incubated for 4 hrs by MTT assay; format: functional, cell-based; conditions: A549, 4 h
[18] = system: L1210; experiment: Antiproliferative activity against mouse L1210 cells assessed as reduction in cell viability by MTT assay; format: functional, cell-based
[19] = system: L1210; experiment: Anticancer activity against mouse L1210 cells assessed as reduction in cell viability by MTT assay; format: functional, cell-based
[20] = system: SMMC-7721; experiment: Antiproliferative activity against human SMMC-7721 cells assessed as reduction in cell viability; format: functional, cell-based
[21] = system: L1210; experiment: Antiproliferative activity against mouse L1210 cells assessed as reduction in cell viability; format: functional, cell-based
[22] = system: HL-60; experiment: Antiproliferative activity against human HL-60 cells assessed as reduction in cell viability; format: functional, cell-based
[23] = system: CAPAN-1; experiment: Antiproliferative activity against human CAPAN-1 cells assessed as reduction in cell viability; format: functional, cell-based
[24] = system: SiHa; experiment: Antiproliferative activity against human SiHa cells assessed as cell growth inhibition incubated for 48 hrs by sulforhodamine B assay; format: functional
[25] = system: PANC-1; experiment: Antiproliferative activity against human PANC-1 cells assessed as cell growth inhibition incubated for 48 hrs by sulforhodamine B assay; format: functional
[26] = system: LOX IMVI; experiment: Anticancer activity against human LOX IMVI cells assessed as cell growth inhibition by sulforhodamine B assay; format: functional
[27] = system: SK-MEL-2; experiment: Anticancer activity against human SK-MEL-2 cells assessed as cell growth inhibition by sulforhodamine B assay; format: functional
[28] = system: SK-MEL-5; experiment: Anticancer activity against human SK-MEL-5 cells assessed as cell growth inhibition by sulforhodamine B assay; format: functional
[29] = system: UACC-257; experiment: Anticancer activity against human UACC-257 cells assessed as cell growth inhibition by sulforhodamine B assay; format: functional
[30] = system: HOP-92; experiment: Anticancer activity against human HOP-92 cells assessed as cell growth inhibition by sulforhodamine B assay; format: functional
[31] = system: CAKI-1; experiment: Anticancer activity against human CAKI-1 cells assessed as cell growth inhibition; format: functional; conditions: pooled result: one value given for 3 cell lines, strains, targets or settings
[32] = system: L1210; experiment: Antiproliferative activity against mouse L1210 cells assessed as reduction in cell viability incubated for 48 hrs by MTT assay; format: functional, cell-based; conditions: L1210, 48 h

Structure (SMILES): CCn1cc(-c2nn(CNc3ccc(Cl)cc3)c(=S)o2)c(=O)c2cc(F)c(N3CCN(C)CC3)cc21
IC50 [6]: 45.4 µM

Structure (SMILES): CC1COc2c(N3CCN(C)CC3)c(F)cc3c(=O)c(-c4n[nH]c(=S)n4/N=C/c4ccccc4O)cn1c23 (stereo not given)
IC50 at 48 h [7]: 10.5 µM | IC50 [8]: 10.5 µM | IC50 [9]: 10.5 µM

Structure (SMILES): COc1ccc(/C=N/n2c(-c3cn4c5c(c(N6CCN(C)CC6)c(F)cc5c3=O)OCC4C)nn(CN(C)C)c2=S)cc1O (stereo not given)
IC50 at 48 h [7]: 0.14 µM | IC50 [8]: 0.14 µM | IC50 [9]: 0.14 µM

Structure (SMILES): CCn1cc(C(=O)O)c(=O)c2cc(F)c(N3CCNCC3)cc21 [NORFLOXACIN]
IC50 [10]: > 128 µM | IC50 [11]: > 128 µM | IC50 [12]: > 128 µM | IC50 [13]: > 128 µM | IC50 [14]: > 128 µM | IC50 [15]: > 128 µM | IC50 [16]: 330 µM | IC50 [17]: 330 µM | IC50 [18]: > 150 µM

Structure (SMILES): CCn1cc(-c2nnc(SCc3nnc(-c4ccccc4OC)o3)[nH]2)c(=O)c2cc(F)c(N3CCN(C)CC3)cc21
IC50 [20]: 3.8 µM | IC50 [21]: 3.8 µM | IC50 [22]: 3.8 µM | IC50 [6]: 3.8 µM | IC50 [23]: 3.8 µM

Structure (SMILES): CCn1cc(C(=O)O)c(=O)c2cnc(N3CCN(C(=O)CCSc4nnnn4-c4ccc(Br)cc4)CC3)nc21
GI50 [24]: 0.06 µM | GI50 [25]: 0.06 µM

Structure (SMILES): C=C1CC(CN2CCN(c3cc4c(cc3F)c(=O)c(C(=O)O)cn4CC)CC2)(c2ccc(OC)cc2)OC1=O (stereo not given)
GI50 [31]: 6.46 µM

Structure (SMILES): O=c1c(-c2nnc3n2N=C(c2ccc(O)c(O)c2)CS3)cn(C2CC2)c2cc(N3CCNCC3)c(F)cc12
IC50 [19]: 1.4 µM

Structure (SMILES): COc1cc(/C=N/n2c(-c3cn4c5c(c(N6CCN(C)CC6)c(F)cc5c3=O)OCC4C)n[nH]c2=S)ccc1O (stereo not given)
IC50 at 48 h [7]: 10.5 µM | IC50 [8]: 10.5 µM | IC50 [9]: 10.5 µM

The next lines start with results.

IC50 [1]: 2.9 µM | IC50 [2]: 2.9 µM | IC50 [3]: 2.9 µM
Structure (SMILES): O=C(N/N=C/c1ccc2c(c1)OCO2)c1cn(C2CC2)c2cc(N3CCNCC3)c(F)cc2c1=O

IC50 [1]: 0.82 µM
Structure (SMILES): COc1ccccc1-c1nnc(CSc2nnc(-c3cn4c5c(c(N6CC[N+](C)(C)CC6)c(F)cc5c3=O)OC[C@@H]4C)o2)o1
IC50 [4]: 0.41 µM | IC50 [5]: 1.6 µM

IC50 [19]: 1.2 µM
Structure (SMILES): CC1COc2c(N3CCN(C)CC3)c(F)cc3c(=O)c(-c4n[nH]c5cc(-c6ccc(O)c(O)c6)nn45)cn1c23 (stereo not given)

GI50 [25]: 0.06 µM
Structure (SMILES): O=C(O)c1cn(C2CC2)c2cc(N3CCN(C(=O)CCSc4nnnn4Cc4ccccc4)CC3)c(F)cc2c1=O
GI50 [24]: 0.06 µM

IC50 [1]: > 50 µM
Structure (SMILES): C[C@H]1COc2c(N3CCN(C)CC3)c(F)cc3c(=O)c(-c4nnc(S)o4)cn1c23
IC50 [4]: > 50 µM | IC50 [5]: > 50 µM

GI50 [25]: 0.06 µM
Structure (SMILES): CCn1cc(C(=O)O)c(=O)c2cnc(N3CCN(C(=O)CCSc4nnnn4Cc4ccccc4)CC3)nc21
GI50 [24]: 0.06 µM

IC50 [19]: 1.8 µM
Structure (SMILES): CC1COc2c(N3CCN(C)CC3)c(F)cc3c(=O)c(-c4nnc5n4N=C(c4ccc(O)c(O)c4)CS5)cn1c23 (stereo not given)

GI50 [27]: < 10 µM | GI50 [28]: < 10 µM
Structure (SMILES): COc1ncnc(NS(=O)(=O)c2ccc(/N=C3\C(=O)N(CN4CCN(c5c(F)cc6c(=O)c(C(=O)O)cn(C7CC7)c6c5OC)CC4C)c4ccc(Br)cc43)cc2)c1OC (stereo not given)
GI50 [26]: < 10 µM | GI50 [29]: < 10 µM | GI50 [30]: 0.176 µM

IC50 [18]: 2.5 µM
Structure (SMILES): CCN1CCN(c2cc3c(cc2F)c(=O)c(-c2nnc4sc(-c5cn(C6CC6)c6cc(N7CCN(C)CC7)c(F)cc6c5=O)nn24)cn3C2CC2)CC1

IC50 [32]: 1.5 µM
Structure (SMILES): C[C@H]1COc2c(N3CCN(C)CC3)c(F)cc3c(=O)c(-c4nn5c(-c6cn(C7CC7)c7cc(N8CCNCC8)c(F)cc7c6=O)nnc5s4)cn1c23
